How the values were obtained:
Type in all cases: biochemical
Aurora-B = Aurora-B (Homo sapiens, UniProt Q96GD4); experiment: Aurora-B inhibition assay, radioactive assay; details: average Ki if more than one value determined
Description: Compounds were screened for their ability to inhibit JAK3 using a standard radioactive enzyme assay. 1.5 μL/well of a DMSO stock containing serial dilutions of a compound of the present invention (concentrations ranging from 667 μM to 46 nM) was placed in a 96 well polycarbonate plate. 50 μL per well of kinase buffer (100 mM HEPES (pH 7.4), 10 mM MgCl2, 25 mM NaCl, 1 mM DTT, and 0.01% bovine serum albumin (BSA)) containing 2 μM poly(Glu)4Tyr and 10 μM ATP was also added to the plate. To initiate the reaction, 50 μL kinase buffer containing 2 nM JAK3 enzyme was added. Final ATP concentration was 5 μM [γ-^33P] ATP (200 μCi ^33P ATP/μmol ATP (Perkin Elmer, Cambridge, Mass.). After 20 minutes at room temperature (25° C.), the reaction was stopped by adding 50 μL 20% trichloroacetic acid (TCA)/0.4 mM ATP to each well. The entire content of each well was then transferred to a 96 well glass fiber filter plate using a TomTek Cell Harvester. After washing, 60 μL scintillation fluid was added and ^33P incorporation detected using a Perkin Elmer TopCount. After removing mean background values for all of the data points the data was fit using Prism software to obtain a Ki(app). Inhibition of JAK2 was measured as above except that final poly(Glu)4Tyr concentration was 15 μM and final ATP concentration was 12 μM.
Some compounds were screened for their ability to inhibit ROCK using a standard radioactive enzyme assay. Assays were carried out in a solution containing 100 mM HEPES (pH 7.5), 10 mM MgCl2, 25 mM NaCl, 2 mM DTT, and 1.5% DMSO. Final substrate concentrations in the assay were 13 μM [γ-^33P] ATP (25 mCi ^33P ATP/mmol ATP, Perkin Elmer, Cambridge, Mass./Sigma Chemicals, St Louis, Mo.) and 27 μM Myelin Basic Protein (MBP). Final enzyme concentration in the assay was 5 nM ROCK. Assays were carried out at room temperature. 1.5 μl of DMSO stock containing serial dilutions of the compound of the present invention (concentrations ranging from 10 μM to 2.6 nM) was placed in a 96 well plate. 50 μl of Solution 1 (100 mM HEPES (pH 7.5), 10 mM MgCl2, […]) was added to the plate. The reaction was initiated by addition of 50 μl of Solution 2 (100 mM HEPES (pH 7.5), 10 mM MgCl2, 4 mM DTT, […] and 10 nM ROCK). After 2 hours the reaction was quenched with 50 μL of 30% trichloroacetic acid (TCA, Fisher) containing 9 mM ATP. Transfer of 140 μL of the quenched reaction to a glass fiber filter plate (Corning, Cat. No. 3511) was followed by washing 3 times with 5% TCA. 50 μL of Optima Gold scintillation fluid (Perkin Elmer) was added and the plates were counted on a Top Count (Perkin Elmer). After removing mean background values for all of the data points the data was fit using Prism software to obtain a Ki(app).
An assay stock buffer solution was prepared containing all of the reagents listed above with the exception of ATP and the test compound of interest. The assay stock buffer solution (60 μl) was incubated in a 96 well plate with 2 μl of the test compound of interest at final concentrations spanning 0.002 μM to 30 μM at 30° C. for 10 min. Typically, a 12 point titration was conducted by preparing serial dilutions (from 1 mM compound stocks) with DMSO of the test compounds in daughter plates. The reaction was initiated by the addition of 5 μl of ATP (final concentration 200 μM). Rates of reaction were obtained using a Molecular Devices Spectramax plate reader (Sunnyvale, Calif.) over 10 min at 30° C. The Ki values were determined from the rate data as a function of inhibitor concentration using computerized nonlinear regression (Prism 3.0, Graphpad Software, San Diego, Calif.). Aurora-C activity was screened in a similar manner using Aurora-C protein. Aurora-B activity was screened using a radioactive assay, such as described in Examples 1 and 2, but using Aurora-B protein.

ROCK I (AA 6-553) = target: T1, ROCK I (AA 6-553) (Homo sapiens, UniProt Q13464); experiment: ROCK inhibition assay, standard coupled enzyme system ("Enzyme"); details: enzyme-linked assay
T1 construct: ROCK I (AA 6-553)
T1 sequence (Q13464 6-553, species assumed): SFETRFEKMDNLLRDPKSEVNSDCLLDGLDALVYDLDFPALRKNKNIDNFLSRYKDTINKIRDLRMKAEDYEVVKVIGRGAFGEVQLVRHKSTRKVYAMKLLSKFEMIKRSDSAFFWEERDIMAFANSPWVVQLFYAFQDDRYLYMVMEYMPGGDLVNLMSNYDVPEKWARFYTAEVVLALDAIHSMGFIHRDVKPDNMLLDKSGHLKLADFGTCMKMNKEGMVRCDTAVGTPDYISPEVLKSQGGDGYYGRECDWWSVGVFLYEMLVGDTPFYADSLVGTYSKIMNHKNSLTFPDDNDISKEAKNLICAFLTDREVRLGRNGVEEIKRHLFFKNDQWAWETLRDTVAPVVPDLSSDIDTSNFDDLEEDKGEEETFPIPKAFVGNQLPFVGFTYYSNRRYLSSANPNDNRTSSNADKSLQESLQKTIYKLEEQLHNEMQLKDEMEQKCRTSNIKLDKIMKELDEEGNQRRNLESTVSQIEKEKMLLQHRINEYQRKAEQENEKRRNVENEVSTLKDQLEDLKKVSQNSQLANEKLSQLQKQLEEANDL
In short: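 ROCK I (AA 6-553) at 45 nM and 30 °C with 45 μM ATP and 200 μM peptide, in 100 mM HEPES pH 7.5, 10 mM MgCl2, 25 mM NaCl, 2 mM DTT, 1.5% DMSO. ADP output read by a PK/LDH coupled system: 2.5 mM PEP, 350 μM NADH, 30 μg/ml PK, 10 μg/ml LDH.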

[1] = target: T2, full length Aurora-A (AA 1-403) (Homo sapiens, UniProt O14965); experiment: Aurora-A inhibition assay, standard coupled enzyme system; details: average Ki if more than one value determined
T2 construct: full length Aurora-A (AA 1-403)
T2 sequence (O14965 1-403): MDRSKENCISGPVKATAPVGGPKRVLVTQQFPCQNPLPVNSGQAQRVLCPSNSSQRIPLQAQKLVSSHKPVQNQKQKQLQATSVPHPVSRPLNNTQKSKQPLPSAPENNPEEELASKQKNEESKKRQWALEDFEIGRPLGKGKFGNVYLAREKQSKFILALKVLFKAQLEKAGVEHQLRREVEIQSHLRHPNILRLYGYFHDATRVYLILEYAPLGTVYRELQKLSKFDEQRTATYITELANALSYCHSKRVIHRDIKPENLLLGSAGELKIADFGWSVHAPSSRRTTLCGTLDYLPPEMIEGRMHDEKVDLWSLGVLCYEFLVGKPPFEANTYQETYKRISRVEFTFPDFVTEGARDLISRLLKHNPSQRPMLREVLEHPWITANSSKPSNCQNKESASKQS

Sequence of Aurora-B (Q96GD4 whole entry): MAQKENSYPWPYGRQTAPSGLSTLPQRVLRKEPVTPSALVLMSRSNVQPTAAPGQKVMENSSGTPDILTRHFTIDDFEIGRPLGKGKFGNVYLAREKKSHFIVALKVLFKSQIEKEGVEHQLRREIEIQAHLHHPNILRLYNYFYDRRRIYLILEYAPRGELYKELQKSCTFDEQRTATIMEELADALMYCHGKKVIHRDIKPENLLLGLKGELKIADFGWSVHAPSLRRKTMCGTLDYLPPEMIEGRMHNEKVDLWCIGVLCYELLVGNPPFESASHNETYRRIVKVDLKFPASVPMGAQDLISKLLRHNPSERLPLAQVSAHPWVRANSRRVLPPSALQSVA

Row | Structure (SMILES) | Ki (Aurora-B) | Ki (ROCK I (AA 6-553)) | Ki [1]
1 | Fc1cnc(-c2c[nH]c3ncc(Cl)cc23)nc1N[C@H]1CCc2ccccc21 [Compound 302] | < 500 nM | 500 to 5000 nM | < 500 nM
2 | C[C@H](Nc1nc(-c2c[nH]c3ncc(Cl)cc23)ncc1F)C(=O)NCCN1CCCC1 [Compound 436] | < 500 nM | 500 to 5000 nM | 500 to 5000 nM
3 | C[C@H](Nc1nc(-c2c[nH]c3ncc(Cl)cc23)ncc1F)C(=O)NC1CCCCC1 [Compound 406] | 500 to 5000 nM | 500 to 5000 nM | < 500 nM
4 | CC[C@H](Nc1nc(-c2c[nH]c3ncc(Cl)cc23)ncc1F)c1ccccc1 [Compound 354] | < 500 nM | 500 to 5000 nM | < 500 nM
5 | CNc1nc(-c2c[nH]c3ncc(Cl)cc23)nc(N[C@@H](C)C(=O)NCC(F)(F)F)c1C(C)C [Compound 432] | 500 to 5000 nM | 500 to 5000 nM | 500 to 5000 nM
6 | C[C@@H](C(=O)NCC(F)(F)F)N(C)c1nc(-c2c[nH]c3ncc(Cl)cc23)ncc1C(F)(F)F [Compound 424] | < 500 nM | 500 to 5000 nM | < 500 nM
7 | C[C@H](Nc1cc(C(=O)N(C)C)nc(-c2c[nH]c3ncc(Cl)cc23)n1)c1ccc(F)cc1 [Compound 425] | < 500 nM | 500 to 5000 nM | < 500 nM
8 | Cc1cnc(-c2c[nH]c3ncc(Cl)cc23)nc1N[C@@H](C)c1ccc(F)cc1 [Compound 322] | < 500 nM | 500 to 5000 nM | < 500 nM
9 | C[C@@H](Nc1nc(-c2c[nH]c3ncc(Cl)cc23)ncc1F)c1ccc([N+](=O)[O-])cc1 [Compound 310] | < 500 nM | 500 to 5000 nM | < 500 nM
10 | Cc1ccccc1Nc1nc(-c2c[nH]c3ncc(Cl)cc23)ncc1F [Compound 299] | < 500 nM | < 500 nM | < 500 nM
11 | C[C@H](Nc1ccnc(-c2c[nH]c3ncc(Cl)cc23)n1)C(=O)NCC(F)(F)F [Compound 413] | < 500 nM | 500 to 5000 nM | < 500 nM
12 | Fc1cnc(-c2c[nH]c3ncc(Cl)cc23)nc1NC1CCCc2ccccc21 (stereo not drawn) [Compound 330] | < 500 nM | 500 to 5000 nM | < 500 nM
13 | C[C@H](Nc1cc(N2CCN(C)CC2)nc(-c2c[nH]c3ncc(Cl)cc23)n1)C(=O)NCC(F)(F)F [Compound 414] | 500 to 5000 nM | 500 to 5000 nM | 500 to 5000 nM
14 | C[C@H](Nc1nc(-c2c[nH]c3ncc(Cl)cc23)ncc1F)C(=O)NCCCN1CCCC1 [Compound 439] | < 500 nM | 500 to 5000 nM | < 500 nM
15 | C[C@H](Nc1nc(-c2c[nH]c3ncc(Cl)cc23)ncc1F)C(=O)NCCc1ccccn1 [Compound 438] | 500 to 5000 nM | 500 to 5000 nM | 500 to 5000 nM
16 | Cc1cccc(C)c1Nc1nc(-c2c[nH]c3ncc(Cl)cc23)ncc1F [Compound 300] | < 500 nM | < 500 nM | < 500 nM
17 | C[C@H](Nc1nc(-c2c[nH]c3ncc(Cl)cc23)c(F)cc1C(=O)O)c1ccc(F)cc1 [Compound 397] | < 500 nM | 500 to 5000 nM | < 500 nM
18 | COc1cccc([C@H](C)Nc2nc(-c3c[nH]c4ncc(Cl)cc34)ncc2F)c1 [Compound 305] | < 500 nM | 500 to 5000 nM | < 500 nM
19 | C[C@H](Nc1nc(-c2c[nH]c3ncc(Cl)cc23)ncc1F)C(=O)NCCc1c[nH]c2ccccc12 [Compound 437] | 500 to 5000 nM | 500 to 5000 nM | < 500 nM

The next lines start with the values.

Row | Ki (Aurora-B) | Ki (ROCK I (AA 6-553)) | Ki [1] | Structure (SMILES)
20 | 500 to 5000 nM | 500 to 5000 nM | 500 to 5000 nM | C[C@H](Nc1nc(-c2c[nH]c3ncc(Cl)cc23)ncc1F)C(=O)NCCc1ccccc1 [Compound 433]
21 | 500 to 5000 nM | 500 to 5000 nM | < 500 nM | CC(C)Nc1nc(-c2c[nH]c3ncc(Cl)cc23)ncc1F [Compound 315]
22 | 500 to 5000 nM | 500 to 5000 nM | < 500 nM | CN(C)CC[C@H](Nc1nc(-c2c[nH]c3ncc(Cl)cc23)ncc1F)C(=O)N(C)C [Compound 456]
23 | < 500 nM | 500 to 5000 nM | < 500 nM | C[C@H](Nc1nc(-c2c[nH]c3ncc(Cl)cc23)ncc1F)C(=O)NCCNC(=O)OC(C)(C)C [Compound 426]
24 | 500 to 5000 nM | 500 to 5000 nM | < 500 nM | CCc1cnc(Cl)nc1-c1c[nH]c2ncc(Cl)cc12 [Compound 428]
25 | 500 to 5000 nM | 500 to 5000 nM | 500 to 5000 nM | COc1ccccc1OCCNC(=O)[C@H](C)Nc1nc(-c2c[nH]c3ncc(Cl)cc23)ncc1F [Compound 453]
26 | 500 to 5000 nM | 500 to 5000 nM | 500 to 5000 nM | C[C@H](Nc1nc(-c2c[nH]c3ncc(Cl)cc23)ncc1F)C(=O)NCCN(C)C(=O)OC(C)(C)C [Compound 451]
27 | 500 to 5000 nM | 500 to 5000 nM | < 500 nM | C[C@H](Nc1nc(-c2c[nH]c3ncc(Cl)cc23)ncc1F)C(=O)NCCc1cccnc1 [Compound 449]
28 | 500 to 5000 nM | 500 to 5000 nM | < 500 nM | Clc1cnc2[nH]cc(-c3cccc(NC4CCCCCC4)n3)c2c1 [Compound 291]
29 | 500 to 5000 nM | 500 to 5000 nM | 500 to 5000 nM | C[C@H](Nc1nc(-c2c[nH]c3ncc(Cl)cc23)ncc1F)C(=O)NCC[C@H]1CCCN1C [Compound 448]
30 | 500 to 5000 nM | 500 to 5000 nM | 500 to 5000 nM | C[C@H](Nc1nc(-c2c[nH]c3ncc(Cl)cc23)ncc1F)C(=O)NCCN1CCOCC1 [Compound 435]
31 | < 500 nM | 500 to 5000 nM | < 500 nM | C[C@H](Nc1cc(N2CCN(C(=O)OC(C)(C)C)CC2)nc(-c2c[nH]c3ncc(Cl)cc23)n1)C(=O)NCC(F)(F)F [Compound 415]
32 | 500 to 5000 nM | 500 to 5000 nM | < 500 nM | C[C@H](Nc1cc(N2CCNCC2)nc(-c2c[nH]c3ncc(Cl)cc23)n1)C(=O)NCC(F)(F)F [Compound 416]
33 | < 500 nM | 500 to 5000 nM | < 500 nM | C[C@H](Nc1nc(-c2c[nH]c3ncc(Cl)cc23)ncc1[N+](=O)[O-])c1ccc(F)cc1 [Compound 422]
